Laboratory results taken from ChEMBL document CHEMBL4418493, “N-hydroxyformamide compounds and compositions comprising them for use as BMP1, TLL1 and/or TLL2 inhibitors” (2018).

Assays:
[1] = Reduction in PICP levels in human cardiac fibroblasts incubated for 24 to 48 hrs by ELISA; format: functional
[2] = Stability in pH 7.96 assessed as compound purity level at 1 mg/ml heated to 40 degC and measured at 200 hrs by LC/MS analsysis; format: physicochemical; conditions: buffer, read-out: Stability
[3] = Drug metabolism in heparinized pooled human plasma at pH 7.5 assessed as conversion to active compound at 100 to 2000 ng/ml incubated for 4 by LC-MS/MS analysis; format: ADME, cell-free
[4] = Drug metabolism in heparinized pooled human plasma at pH 7.5 assessed as formation of (3-ethoxy-5-(5-((((R)-2-((R)-1-(N-hydroxyformamido)propyl)heptanamido)methyl)carbamoyl) furan-2-yl)phenyl)phosphonic acid at 100 to 2000 ng/ml incubated up to 4 or 24 hrs by LC-MS/MS analysis; format: ADME, cell-free; conditions: pH 7.5, 24 h
[5] = Drug metabolism in heparinized pooled human plasma at pH 7.5 assessed as formation of (S)-2-(2-ethoxy-4-(5-((((R)-2-((R)-1-(N-hydroxyformamido)propyl)heptanamido)methyl) carbamoyl)furan-2-yl)benzamido)succinic acid at 100 to 2000 ng/ml incubated up to 4 or 24 hrs by LC-MS/MS analysis; format: ADME, cell-free; conditions: pH 7.5, 24 h
[6] = Drug metabolism in heparinized pooled human plasma at pH 7.5 assessed as formation of (S)-2-(2-(carboxymethoxy)-4-(5-((((R)-2-((R)-1-(N-hydroxyformamido)propyl)heptanamido)methyl)carbamoyl)furan-2-yl)benzamido)succinic acid at 100 to 2000 ng/ml incubated up to 4 or 24 hrs by LC-MS/MS analysis; format: ADME, cell-free; conditions: pH 7.5, 24 h
[7] = Reduction in mature collagen deposition levels in human cardiac fibroblasts incubated for 24 to 48 hrs by immunostaining based assay; format: functional
[8] = target: T1, Bone morphogenetic protein 1 (Homo sapiens, UniProt P13497); experiment: Inhibition of C-terminal FLAG-6x-His epitope tagged and N-terminal human RAGE signal sequence tagged human BMP1 (121 to 721 amino acids) expressed in CHO-E1a cells pre-incubated for 10 mins before promyostatin peptide substrate addition and measured after 60 mins using 0.5 nM BMP1 by FRET based assay; format: cell-based
T1 sequence (P13497 whole entry): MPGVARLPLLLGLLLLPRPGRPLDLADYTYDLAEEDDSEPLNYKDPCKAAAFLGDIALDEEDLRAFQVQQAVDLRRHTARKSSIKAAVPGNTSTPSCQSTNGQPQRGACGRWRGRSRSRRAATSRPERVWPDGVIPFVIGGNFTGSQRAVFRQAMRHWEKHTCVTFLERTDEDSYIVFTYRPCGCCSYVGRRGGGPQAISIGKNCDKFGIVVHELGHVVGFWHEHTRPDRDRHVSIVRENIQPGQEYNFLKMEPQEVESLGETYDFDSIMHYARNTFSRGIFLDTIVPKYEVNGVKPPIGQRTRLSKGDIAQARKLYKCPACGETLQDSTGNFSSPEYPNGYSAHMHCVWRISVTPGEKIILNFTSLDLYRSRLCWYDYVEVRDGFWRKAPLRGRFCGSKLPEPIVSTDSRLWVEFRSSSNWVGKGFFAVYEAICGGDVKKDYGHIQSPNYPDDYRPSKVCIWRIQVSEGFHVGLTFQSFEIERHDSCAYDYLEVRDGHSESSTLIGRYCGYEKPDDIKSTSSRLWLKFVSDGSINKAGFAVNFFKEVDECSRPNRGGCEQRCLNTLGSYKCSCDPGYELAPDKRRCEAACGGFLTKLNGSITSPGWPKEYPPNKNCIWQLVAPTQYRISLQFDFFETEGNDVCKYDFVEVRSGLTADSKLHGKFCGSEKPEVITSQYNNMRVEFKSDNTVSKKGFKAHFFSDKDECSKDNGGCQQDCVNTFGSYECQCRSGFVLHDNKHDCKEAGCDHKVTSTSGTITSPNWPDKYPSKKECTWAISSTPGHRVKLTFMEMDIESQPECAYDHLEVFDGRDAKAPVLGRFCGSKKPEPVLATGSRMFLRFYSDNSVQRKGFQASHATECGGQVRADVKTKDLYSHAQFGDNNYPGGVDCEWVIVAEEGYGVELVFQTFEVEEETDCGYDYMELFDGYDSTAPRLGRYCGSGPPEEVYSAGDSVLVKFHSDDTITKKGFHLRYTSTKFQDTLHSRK

Structure (SMILES) | remaining at 200 h, 1 mg/ml [2] | Drug metabolism [3] | Drug metabolism [4] | Drug metabolism [5] | Drug metabolism [6] | IC50 [1] | IC50 [7] | IC50 [8]
CCCCC[C@@H](C(=O)NCNC(=O)c1ccc(-c2ccc(C(=O)N[C@@H](CC(=O)O)C(=O)O)c(OCC)c2)o1)[C@@H](CC)N(C=O)OC(=O)Cc1ccccc1 | < 80% | > 10% | – | Metabolite_Detected | – | – | – | –
CCCCC[C@@H](C(=O)NCNC(=O)c1ccc(-c2ccc(C(=O)N[C@@H](CC(=O)O)C(=O)O)c(OCC(=O)O)c2)o1)[C@@H](CC)N(C=O)OC(=O)OC(C)(C)C | < 80% | > 10% | – | – | Metabolite_Detected | < 3.98 µM | – | –
CCCCC[C@@H](C(=O)NCNC(=O)c1ccc(-c2ccc(C(=O)N[C@@H](CC(=O)O)C(=O)O)c(OCC(=O)O)c2)o1)[C@@H](CC)N(C=O)OCOP(=O)(O)O | – | > 10% | – | – | Metabolite_Detected | – | – | –
CCCCC[C@@H](C(=O)NCNC(=O)c1ccc(-c2cc(OCC)cc(P(=O)(Oc3ccccc3)Oc3ccccc3)c2)o1)[C@@H](CC)N(O)C=O | – | – | – | – | – | < 3.98 µM | – | 0.126 to 0.316 µM
CCCCC[C@@H](C(=O)NCNC(=O)c1ccc(-c2ccc(C(=O)N[C@@H](CC(=O)O)C(=O)O)c(OCC)c2)o1)[C@@H](CC)N(C=O)OC(=O)C(C)(C)C | < 80% | > 10% | – | Metabolite_Detected | – | < 3.98 µM | < 1 µM | –
CCCCC[C@@H](C(=O)NCNC(=O)c1ccc(-c2ccc(C(=O)N[C@@H](CC(=O)O)C(=O)O)c(OCC(=O)O)c2)o1)[C@@H](CC)N(C=O)OC(=O)c1ccccc1O | < 80% | > 10% | – | – | Metabolite_Detected | – | – | –
CCCCC[C@@H](C(=O)NCNC(=O)c1ccc(-c2ccc(C(=O)N[C@@H](CC(=O)O)C(=O)O)c(OCC(=O)O)c2)o1)[C@@H](CC)N(C=O)OC(=O)c1cccnc1 | < 80% | > 10% | – | – | Metabolite_Detected | < 3.98 µM | – | –
CCCCC[C@@H](C(=O)NCNC(=O)c1ccc(-c2ccc(C(=O)N[C@@H](CC(=O)O)C(=O)O)c(OCC(=O)O)c2)o1)[C@@H](CC)N(C=O)OC(=O)C(CC)CC | – | – | – | – | Metabolite_Detected | < 3.98 µM | < 1 µM | –
CCCCC[C@@H](C(=O)NCNC(=O)c1ccc(-c2ccc(C(=O)N[C@@H](CC(=O)O)C(=O)O)c(OCC(=O)O)c2)o1)[C@@H](CC)N(C=O)OC(=O)c1ccccc1OC(C)=O | < 80% | > 10% | – | – | Metabolite_Detected | < 3.98 µM | – | –
CCCCC[C@@H](C(=O)NCNC(=O)c1ccc(-c2ccc(C(=O)N[C@@H](CC(=O)O)C(=O)O)c(OCC(=O)O)c2)o1)[C@@H](CC)N(C=O)OC(=O)c1ccccc1C | < 80% | > 10% | – | – | Metabolite_Detected | – | – | –

Further lines, with some results ahead:

remaining at 200 h, 1 mg/ml [2] | Drug metabolism [3] | Drug metabolism [4] | Drug metabolism [5] | Drug metabolism [6] | Structure (SMILES) | IC50 [1] | IC50 [7] | IC50 [8]
< 80% | > 10% | Metabolite_Detected | – | – | CCCCC[C@@H](C(=O)NCNC(=O)c1ccc(-c2cc(OCC)cc(P(=O)(O)O)c2)o1)[C@@H](CC)N(C=O)OCc1oc(=O)oc1C | < 3.98 µM | – | –
< 80% | > 10% | Metabolite_Detected | – | – | CCCCC[C@@H](C(=O)NCNC(=O)c1ccc(-c2cc(OCC)cc(P(=O)(O)O)c2)o1)[C@@H](CC)N(C=O)OC(=O)Cc1ccccc1 | – | – | –
– | – | Metabolite_Detected | – | – | CCCCC[C@@H](C(=O)NCNC(=O)c1ccc(-c2cc(OCC)cc(P(=O)(O)O)c2)o1)[C@@H](CC)N(C=O)OC(=O)c1ccc(OC)cc1 | < 3.98 µM | < 1 µM | –
– | – | Metabolite_Detected | – | – | CCCCC[C@@H](C(=O)NCNC(=O)c1ccc(-c2cc(OCC)cc(P(=O)(O)O)c2)o1)[C@@H](CC)N(C=O)OC(=O)c1ccc2c(c1)OCCO2 | < 3.98 µM | < 1 µM | –
– | > 10% | Metabolite_Detected | – | – | CCCCC[C@@H](C(=O)NCNC(=O)c1ccc(-c2cc(OCC)cc(P(=O)(O)O)c2)o1)[C@@H](CC)N(C=O)OCOP(=O)(O)O | – | – | –
< 80% | > 10% | – | – | Metabolite_Detected | CCCCC[C@@H](C(=O)NCNC(=O)c1ccc(-c2ccc(C(=O)N[C@@H](CC(=O)O)C(=O)O)c(OCC(=O)O)c2)o1)[C@@H](CC)N(C=O)OC(=O)c1ccccc1 | – | – | –
< 80% | > 10% | – | Metabolite_Detected | – | CCCCC[C@@H](C(=O)NCNC(=O)c1ccc(-c2ccc(C(=O)N[C@@H](CC(=O)O)C(=O)O)c(OCC)c2)o1)[C@@H](CC)N(C=O)OC(=O)c1ccccc1 | < 3.98 µM | – | –
– | – | Metabolite_Detected | – | – | CCCCC[C@@H](C(=O)NCNC(=O)c1ccc(-c2cc(OCC)cc(P(=O)(O)O)c2)o1)[C@@H](CC)N(C=O)OC(=O)OC(C)(C)C | < 3.98 µM | < 1 µM | –
< 80% | > 10% | Metabolite_Detected | – | – | CCCCC[C@@H](C(=O)NCNC(=O)c1ccc(-c2cc(OCC)cc(P(=O)(O)O)c2)o1)[C@@H](CC)N(C=O)OCOC(=O)C(C)(C)C | – | – | –
< 80% | > 10% | Metabolite_Detected | – | – | CCCCC[C@@H](C(=O)NCNC(=O)c1ccc(-c2cc(OCC)cc(P(=O)(O)O)c2)o1)[C@@H](CC)N(C=O)OC(=O)c1ccccc1 | – | – | –
